Values of other authors in patent US9555150B2, “Absorbent articles comprising an organic zinc salt and an anti-bacterial agent or alkali metal chloride or alkaline earth metal chloride” (SCA HYGIENE PRODUCTS AB, priority 2006, dated 2017).

Conditions: measured in water at 25° C

Row | Compound | pK
1 | CC(=O)O [Acetic acid, acetic acid] | 4.75
2 | O=C(O)c1ccccc1 [benzoic acid] | 4.19
3 | C/C=C/C=C/C(=O)O [sorbic acid] | 4.76
